Experiments:
[1] = Inhibition of human ClpP expressed in Escherichia coli SG1146 cells/His6-tagged TEV-fused human ClpX expressed in Escherichia coli B21 Gold DE3 cells complex formation using FITC-casein as substrate incubated for 60 mins and measured at 20 secs time interval for 90 mins by fluorescence assay
[2] = target: ATP-dependent Clp protease proteolytic subunit, mitochondrial (Homo sapiens, UniProt Q16740); assay: Inhibition of human ClpP expressed in Escherichia coli SG1146 cells using N-acetyl-Trp-Leu-Ala-AMC as substrate incubated for 1 hr and measured at 20 secs time interval for 90 mins by fluorescence assay
ATP-dependent Clp protease proteolytic subunit, mitochondrial, sequence (Q16740 whole entry): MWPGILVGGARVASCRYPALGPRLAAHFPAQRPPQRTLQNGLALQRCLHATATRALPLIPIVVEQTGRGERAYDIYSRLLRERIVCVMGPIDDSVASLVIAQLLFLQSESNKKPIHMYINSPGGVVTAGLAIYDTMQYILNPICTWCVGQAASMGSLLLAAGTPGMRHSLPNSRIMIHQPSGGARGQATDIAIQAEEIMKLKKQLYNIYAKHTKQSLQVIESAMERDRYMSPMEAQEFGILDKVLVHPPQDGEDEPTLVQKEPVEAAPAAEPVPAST

CC(C)C[C@H](NC(=O)[C@H](CC(C)C)NC(=O)c1ccc(F)c([N+](=O)[O-])c1)B(O)O
IC50 [1]: 1000 nM

COc1ccc(C(=O)NC(CC(C)C)C(=O)NC(Cc2ccccc2)B(O)O)c(Cl)c1 (stereo unspecified)
IC50 [2]: Not Active
IC50 ([2]; read-out: IC50): 118000 nM

CC(C)C[C@H](NC(=O)[C@H](CC(C)C)NC(=O)c1ccccc1-c1ccccc1)B(O)O
IC50 [1]: 900 nM

COc1ccc(C(=O)N[C@@H](CC(C)C)C(=O)N[C@@H](CC(C)C)B(O)O)c(Cl)c1
IC50 [1]: 800 nM

CC(C)CC(NC(=O)C(CC(C)C)NC(=O)C1(c2ccccc2)CC1)B(O)O (stereo unspecified)
IC50 [2]: Not Active
